In USRE37623E1, “Enzyme inhibitors, their synthesis, and methods for use” (priority 1993, dated 2002):
Like-named read-outs stand apart in the source and are kept apart here.

Legend:
UrdPase = target: T1, UrdPase; assay: Inhibition of uridine phosphorylase in mouse liver cytosol (apparent Ki, Dixon plots); format: biochemical; settings: for Ki: enzyme from mouse liver cytosol, uridine 1 mM, ± S.D.
T1 construct: The supernatant fluids (cytosol) were collected and used as an enzyme source
Experimental: (§1) Mouse livers were obtained from female Swiss Albino (CD1) mice weighing 20-24 g (Charles River Laboratories, Boston, Mass.). Mice were sacrificed by cervical dislocation and the livers removed, weighed, minced, and homogenized in ice-cold (3:1, v/w) buffer [20 mM potassium phosphate. pH 8.0; 1 mM dithiothreitol (DTT), 1 mM EDTA] using a Polytron homogenizer (Brinkman Instruments, Westbury, N.J.). The homogenates were centrifuged at 105,000×g for 1 h. at 4° C. The supernatant fluids (cytosol) were collected and used as an enzyme source.
(§2) All assays described below were conducted at 37° C. under conditions where enzyme activity was linear with respect to time and enzyme concentration. For each inhibitor, 5 concentrations were used ranging from […]. Reactions were started by the addition of extract and stopped by boiling in a water bath for 2 minutes followed by freezing, Precipitated proteins were removed by centrifugation. Substrates were separated from products in the supematant by TLC and the radioactivity in the spots was determined on a percentage basis using a Berthold LB-2821 Automatic TLC-Linear Analyzer.
Nucleoside cleavage was measured isotopically by following the formation of nucleobases from their respective nucleosides as previously described. […] The incubation was terminated after 30 min. Uridine and thymidine were separated from their respective nucleobases on silica gel TLC plates developed with CHCl3:MEOH:AcOH (90:5:5, v/v/v). The Rf values were uridine, 0.07; uracil, 0.43; thymidine, 0.14; and thymine, 0.62.
Determination and significance of apparent Ki values was pertbrined using uridine (1 mM) and 5 different concentrations of the inhibitor ranging from […]. Apparent Ki values were estimated from Dixon's plots (1/v vs. [I]) of the data by a computer program with least squares fitting. Apparent Ki, values are related to Ki values by the following equation:
Apparent Ki=Kis(1+[S]/Km)/1+([S]/Km) (Kis/Kii)
where Kis and Kii are inhibition constants that would have been estimated from the replot of slope and intercept, respectively, of a Lineweaver-Burk plots vs. [I]. If a compound is a competitive inhibitor with respect to uridine, Kii=∝ and Kis=Ki. Therefore, the apparent .Ki=Ki(1+[S]1 Km). […] It should be noted, however, that we have not characterized the compounds used in this study with regard to the type of inhibition (competitive, noncompetitive, or uncompetitive) or whether they are substrates for the enzyme.

[1] = Pharmacokinetics of PSAU in CD-1 mice; format: in vivo; settings: female CD-1 mice; for Cmax / half-life / MRT: mouse, ip, plasma; for Cmax: read-out: Cmax, peak plasma concentration; for half-life: read-out: Apt½, elimination half-life (converted); for MRT: read-out: MRT, mean residence time
Experimental: PSAU was injected i.p. into female CD-1 mice. At various time intervals, 250 μl of whole blood were collected from the orbital sinuses from three mice by a heparinized Natelson pipet and placed on ice. The whole blood was then centrifuged for 5 minutes to separate the plasma which was kept in a -20° C. freezer until preparation for analysis by the HPLC. The pharmacokinetic parameters were estimated by compartmental model-independent methods using a […]/Base program. The AUC was determined by the trapezoidal rule with extrapolation to time infinity using the terminal disposition slope (K) generated by a weighted nonlinear least-squares regression of an exponential fit of the data, with the weighted square factor set as the reciprocal of the calculated concentration squared. Elimination half-life of uridine was calculated from 0.693/K The total plasma clearance (C1) was calculated by dividing the dose by the AUC and the weight of the mouse. The peak plasma concentration (Cmax) values and time to peak plasma concentration (Tmax) values were observed experimental values. Renal clearance (CLR) of uridine was calculated by dividing the […] by the AUC.

DHUDase = target: T2, DHUDase (Mus musculus, UniProt Q8CHR6); assay: Inhibition of dihydrouracil dehydrogenase in mouse liver cytosol (apparent Ki); format: biochemical; settings: enzyme from mouse liver cytosol; 25 μM uracil; ± S.D.
T2 construct: The supernatant fluids (cytosol) were collected and used as an enzyme source; from tissue; host or cells: mouse liver cytosol (female Swiss Albino CD1 mice)
T2 sequence (Q8CHR6 1-1025): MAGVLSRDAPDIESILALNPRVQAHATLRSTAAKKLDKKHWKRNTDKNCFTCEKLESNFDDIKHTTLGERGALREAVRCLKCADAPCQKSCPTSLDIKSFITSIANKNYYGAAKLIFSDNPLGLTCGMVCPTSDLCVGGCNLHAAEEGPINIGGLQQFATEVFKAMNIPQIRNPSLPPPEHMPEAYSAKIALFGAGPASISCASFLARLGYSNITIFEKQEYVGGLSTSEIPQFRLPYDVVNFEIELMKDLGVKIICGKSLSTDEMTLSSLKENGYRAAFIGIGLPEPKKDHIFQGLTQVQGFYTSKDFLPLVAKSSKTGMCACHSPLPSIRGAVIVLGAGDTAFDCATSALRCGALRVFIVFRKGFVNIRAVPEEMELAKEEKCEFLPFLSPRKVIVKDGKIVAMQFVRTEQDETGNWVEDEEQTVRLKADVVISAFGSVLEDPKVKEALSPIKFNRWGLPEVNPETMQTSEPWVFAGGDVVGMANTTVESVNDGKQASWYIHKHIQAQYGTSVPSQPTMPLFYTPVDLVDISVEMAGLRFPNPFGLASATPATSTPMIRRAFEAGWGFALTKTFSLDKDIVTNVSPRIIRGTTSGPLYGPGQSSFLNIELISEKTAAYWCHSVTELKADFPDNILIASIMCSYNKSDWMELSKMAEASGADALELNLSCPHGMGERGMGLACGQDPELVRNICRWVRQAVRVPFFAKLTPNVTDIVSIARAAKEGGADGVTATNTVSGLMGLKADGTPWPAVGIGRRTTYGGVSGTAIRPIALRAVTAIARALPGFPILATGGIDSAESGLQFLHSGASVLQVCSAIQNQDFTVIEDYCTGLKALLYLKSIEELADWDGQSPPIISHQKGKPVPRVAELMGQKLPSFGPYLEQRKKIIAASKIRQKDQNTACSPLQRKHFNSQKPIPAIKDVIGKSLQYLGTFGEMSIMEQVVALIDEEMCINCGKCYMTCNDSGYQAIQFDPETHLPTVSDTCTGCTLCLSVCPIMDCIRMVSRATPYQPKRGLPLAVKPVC
Experimental: as §1, §2
The activity of the enzyme was measured by following the formation of dihydrouracil, carbamyl-β-alanine, and β-alanine from [6 -^14C]uracil as previously described. […] DHUDase activity was determined as the sum of the products dihydrouracil, carbamyl-β-alanine, and β-alanine. […]

For O=c1[nH]c(=O)n(COCCO)cc1Cc1ccccc1 [5-Benzylacyclouridine (BAU), 5-Benzylacyclouridine, reference compound], the Ki (UrdPase) was 3.1 ± 0.22 µM.
For O=c1[nH]c(=O)n(COCCO)cc1[Se]c1ccccc1 [PSAU, 1-[(2-Hydroxyethoxy)methyl]-5-(phenylselenenyl)uracil], the Ki (UrdPase) was 3.8 ± 0.8 µM, the “ApVd, volume of distribution” value ([1]; PSAU 30 mg/kg i.p.) was 0.331 L/kg and the “ApVd, volume of distribution” value ([1]; PSAU 60 mg/kg i.p.) was 0.356 L/kg. For the same molecule, the Cmax ([1]; PSAU 30 mg/kg i.p.) was 100 µM, the Cmax ([1]; PSAU 60 mg/kg i.p.) was 210 µM and the half-life ([1]; PSAU 30 mg/kg i.p.) was 0.7 h. It also gave an MRT ([1]; PSAU 30 mg/kg i.p.) of 1.28 h, a half-life ([1]; PSAU 60 mg/kg i.p.) of 1.4 h and an MRT ([1]; PSAU 60 mg/kg i.p.) of 2.27 h.
Molecule O=c1ccn([C@@H]2O[C@H](CO)[C@@H](O)[C@H]2O)c(=O)[nH]1 [uridine] has a Km (UrdPase; UrdPase from mouse liver, substrate) of 66 µM.
CCOCn1cc([Se]c2ccccc2)c(=O)[nH]c1=O [1-Ethoxymethyl-5-phenylselenenyluracil, 1-(Ethoxymethyl)-5-(phenylselenenyl)uracil] showed a Ki (UrdPase) of 313 ± 32 µM and a melting point of 143 to 145 °C.
With O=c1cc([Se]c2ccccc2)n(COCCO)c(=O)[nH]1 [6-(Phenylselenenyl)acyclouridine, 1-[(2-hydroxyethoxy)methyl]-6-(phenylselenenyl)uridine] the Ki (UrdPase) was 19.3 ± 1.5 µM.
Work on O=c1[nH]c(=O)n([C@H]2C[C@H](O)[C@@H](CO)O2)cc1[Se]c1ccccc1 [5-(Phenylselenenyl)-2′-deoxyuridine, 5-(phenylselenenyl)-2′-deoxyuridine] yielded a Ki (UrdPase) of 5.5 ± 0.6 µM.
In the case of O=c1[nH]c(=O)n(COCCO)c([Se]c2ccccc2)c1F [6-(Phenylselenenyl)acyclo-5-FUrd], the Ki (UrdPase) is reported as 35 ± 5.6 µM.
Molecule O=c1[nH]cc([Se]c2ccccc2)c(=O)[nH]1 [5-Phenylselenenyluracil (PSU), 5-Phenylselenenyluracil] has a Ki (DHUDase) of 4.8 ± 0.6 µM, a Ki (UrdPase) of 205 ± 35 µM and a melting point of 249 to 251 °C.
O=c1[nH]cc(Sc2ccccc2)c(=O)[nH]1 [5-Phenylthiouracil (PTU), 5-(Phenylthio)uracil] gave a Ki (DHUDase) of 5.4 ± 0.6 µM and a Ki (UrdPase) of 744 ± 85 µM.
O=c1[nH]c(=O)n([C@@H]2O[C@H](CO)[C@@H](O)[C@H]2O)cc1[Se]c1ccccc1 [5-(Phenylselenenyl)uridine, 5-(phenylselenenyl)uridine] gave a Ki (UrdPase) of 4 ± 0.2 µM.
